Active and inactive are the calls of the source.
What was measured:
CHO = CHO cell viability loss, potency – luminescence, cytotoxicity control for TLR9-MyD88 binding inhibitor project, dose response (AID 588339); assay type: functional, cell-based, hamster; conditions: Cricetulus griseus;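 note: CHO cells stably coexpressing TLR9 and MyD88 fusions from primary screen; compound exposure lasted 48 hours before viability readout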
Beta Lactamase = Beta Lactamase (Pseudomonas aeruginosa, UniProt Q932Y6); experiment: BLA reporter interference, concentration series – BLA reporter cells, FRET fluorescence, artefact control for TLR9-MyD88 binding inhibitor project, dose response (AID 588341); assay type: cell-based;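 note: cell based assay in CHO-K1 cells stably expressing beta-lactamase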
Beta Lactamase, sequence (Q932Y6 whole entry): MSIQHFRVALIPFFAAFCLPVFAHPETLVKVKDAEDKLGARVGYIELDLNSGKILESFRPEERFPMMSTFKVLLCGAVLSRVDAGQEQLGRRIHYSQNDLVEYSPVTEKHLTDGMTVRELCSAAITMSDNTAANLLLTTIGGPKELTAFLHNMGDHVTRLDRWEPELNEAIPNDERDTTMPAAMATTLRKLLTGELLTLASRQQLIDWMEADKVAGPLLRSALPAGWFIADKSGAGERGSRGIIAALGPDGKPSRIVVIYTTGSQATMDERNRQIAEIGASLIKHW

Protein Tat = target: T1, Protein Tat (Human immunodeficiency virus type 1 group M subtype B (isolate HXB2)(HIV-1), UniProt P04608); assay type: functional;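 note: tat binding to TAR RNA read out by fluorescence polarization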
T1 sequence (P04608 whole entry): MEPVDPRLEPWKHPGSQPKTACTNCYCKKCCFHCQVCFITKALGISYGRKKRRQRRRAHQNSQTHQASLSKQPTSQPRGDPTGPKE

[1] = viability loss in THP-1 monocytes – THP-1 cells, cytotoxicity control for Vif-APOBEC3G degradation inhibitor project, dose response (AID 1117359); assay type: functional; conditions: THP-1
Caspase-3 [2] = target: T2, Caspase-3 (Homo sapiens, UniProt P42574); assay type: functional
T2 sequence (P42574 whole entry): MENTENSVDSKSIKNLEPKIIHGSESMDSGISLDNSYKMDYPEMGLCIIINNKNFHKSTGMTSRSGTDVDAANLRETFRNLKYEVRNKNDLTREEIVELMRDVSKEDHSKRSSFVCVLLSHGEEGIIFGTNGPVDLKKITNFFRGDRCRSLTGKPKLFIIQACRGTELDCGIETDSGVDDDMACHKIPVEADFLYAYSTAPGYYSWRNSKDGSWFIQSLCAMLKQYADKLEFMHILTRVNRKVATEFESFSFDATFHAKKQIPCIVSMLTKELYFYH

[3] = target: T3, Sentrin-specific protease 7 (Homo sapiens, UniProt Q9BQF6); assay type: functional;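 note: Luminescence-based dose-response confirmation of ultra-high-throughput screening hits, measuring inhibition of SENP7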
T3 sequence (Q9BQF6 whole entry): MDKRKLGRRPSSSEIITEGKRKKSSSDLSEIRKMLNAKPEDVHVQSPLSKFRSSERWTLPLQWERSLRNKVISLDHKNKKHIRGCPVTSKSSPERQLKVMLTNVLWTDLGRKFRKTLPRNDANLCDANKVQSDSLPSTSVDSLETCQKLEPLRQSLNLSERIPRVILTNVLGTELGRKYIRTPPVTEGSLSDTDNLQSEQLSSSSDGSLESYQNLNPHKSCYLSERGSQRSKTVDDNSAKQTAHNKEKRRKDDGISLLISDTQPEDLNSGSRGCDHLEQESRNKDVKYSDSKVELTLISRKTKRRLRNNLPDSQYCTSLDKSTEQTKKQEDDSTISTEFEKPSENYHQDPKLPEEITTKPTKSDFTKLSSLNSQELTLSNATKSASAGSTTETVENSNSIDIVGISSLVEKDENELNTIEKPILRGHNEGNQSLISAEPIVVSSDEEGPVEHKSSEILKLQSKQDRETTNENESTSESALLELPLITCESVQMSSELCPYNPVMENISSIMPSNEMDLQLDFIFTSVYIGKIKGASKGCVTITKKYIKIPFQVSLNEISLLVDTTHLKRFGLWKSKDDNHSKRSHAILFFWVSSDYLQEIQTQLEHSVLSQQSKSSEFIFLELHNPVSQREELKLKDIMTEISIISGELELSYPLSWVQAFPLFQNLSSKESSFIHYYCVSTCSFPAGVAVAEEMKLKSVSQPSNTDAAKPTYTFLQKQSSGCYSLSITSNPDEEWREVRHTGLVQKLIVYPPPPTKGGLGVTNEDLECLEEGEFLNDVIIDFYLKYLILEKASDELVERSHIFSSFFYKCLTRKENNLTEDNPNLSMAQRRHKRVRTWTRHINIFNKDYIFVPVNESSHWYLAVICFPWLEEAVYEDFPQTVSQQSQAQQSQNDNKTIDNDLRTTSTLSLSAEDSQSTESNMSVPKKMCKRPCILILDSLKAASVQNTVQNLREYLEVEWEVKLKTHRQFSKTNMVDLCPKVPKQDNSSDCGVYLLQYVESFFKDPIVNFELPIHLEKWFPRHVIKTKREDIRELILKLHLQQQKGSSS

[4] = target: T4, Sentrin-specific protease 6 (Homo sapiens, UniProt Q9GZR1); assay type: functional
T4 sequence (Q9GZR1 whole entry): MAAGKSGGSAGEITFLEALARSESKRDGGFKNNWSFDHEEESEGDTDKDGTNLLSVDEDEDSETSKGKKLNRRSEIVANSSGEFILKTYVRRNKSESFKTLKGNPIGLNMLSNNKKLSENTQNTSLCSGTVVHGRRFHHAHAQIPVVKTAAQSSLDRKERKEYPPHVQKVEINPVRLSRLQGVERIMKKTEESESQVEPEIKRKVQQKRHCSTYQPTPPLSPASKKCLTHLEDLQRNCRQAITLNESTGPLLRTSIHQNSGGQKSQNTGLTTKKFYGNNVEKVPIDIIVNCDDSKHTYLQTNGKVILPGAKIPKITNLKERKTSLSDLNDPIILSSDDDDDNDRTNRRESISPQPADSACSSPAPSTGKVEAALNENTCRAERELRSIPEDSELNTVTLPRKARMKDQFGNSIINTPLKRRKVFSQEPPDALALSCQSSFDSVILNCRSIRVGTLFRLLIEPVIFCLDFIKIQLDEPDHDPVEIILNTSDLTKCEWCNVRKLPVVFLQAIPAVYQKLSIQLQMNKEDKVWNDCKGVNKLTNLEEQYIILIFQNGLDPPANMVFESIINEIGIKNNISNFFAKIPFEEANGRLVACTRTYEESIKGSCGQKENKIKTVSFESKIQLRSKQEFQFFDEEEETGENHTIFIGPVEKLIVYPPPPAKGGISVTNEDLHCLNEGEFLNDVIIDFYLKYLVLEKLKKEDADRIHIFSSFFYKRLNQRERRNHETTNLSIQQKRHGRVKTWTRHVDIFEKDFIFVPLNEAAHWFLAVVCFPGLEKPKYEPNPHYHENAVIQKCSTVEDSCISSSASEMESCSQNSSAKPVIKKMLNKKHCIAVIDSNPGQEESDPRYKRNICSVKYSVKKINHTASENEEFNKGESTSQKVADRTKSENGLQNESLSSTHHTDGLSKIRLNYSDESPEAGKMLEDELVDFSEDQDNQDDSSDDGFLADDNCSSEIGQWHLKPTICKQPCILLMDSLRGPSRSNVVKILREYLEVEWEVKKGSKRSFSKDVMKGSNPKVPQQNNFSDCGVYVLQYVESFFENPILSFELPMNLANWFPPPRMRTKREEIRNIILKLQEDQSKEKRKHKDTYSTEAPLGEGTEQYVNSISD

[5] = target: T5, Sentrin-specific protease 8 (Homo sapiens, UniProt Q96LD8); assay type: functional;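 note: luminescence read-out of SENP8 inhibition, dose-response confirmation following an ultra-high-throughput screen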
T5 sequence (Q96LD8 whole entry): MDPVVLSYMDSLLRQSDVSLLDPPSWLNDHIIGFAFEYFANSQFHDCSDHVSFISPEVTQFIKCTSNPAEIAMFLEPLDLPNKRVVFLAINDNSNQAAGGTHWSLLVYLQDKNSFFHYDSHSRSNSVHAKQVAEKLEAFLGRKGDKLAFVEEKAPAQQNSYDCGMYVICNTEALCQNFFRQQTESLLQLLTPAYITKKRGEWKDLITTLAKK

Cytochrome P450 2C19 = Cytochrome P450 2C19 (Homo sapiens, UniProt P33261); experiment: Cytochrome panel assay with activity outcomes. Panel member name: p450-cyp2c19 Compounds with AC50 equal or less than 10 uM are considered active; assay type: functional; conditions: read-out: AC50
Cytochrome P450 2C19, sequence (P33261 whole entry): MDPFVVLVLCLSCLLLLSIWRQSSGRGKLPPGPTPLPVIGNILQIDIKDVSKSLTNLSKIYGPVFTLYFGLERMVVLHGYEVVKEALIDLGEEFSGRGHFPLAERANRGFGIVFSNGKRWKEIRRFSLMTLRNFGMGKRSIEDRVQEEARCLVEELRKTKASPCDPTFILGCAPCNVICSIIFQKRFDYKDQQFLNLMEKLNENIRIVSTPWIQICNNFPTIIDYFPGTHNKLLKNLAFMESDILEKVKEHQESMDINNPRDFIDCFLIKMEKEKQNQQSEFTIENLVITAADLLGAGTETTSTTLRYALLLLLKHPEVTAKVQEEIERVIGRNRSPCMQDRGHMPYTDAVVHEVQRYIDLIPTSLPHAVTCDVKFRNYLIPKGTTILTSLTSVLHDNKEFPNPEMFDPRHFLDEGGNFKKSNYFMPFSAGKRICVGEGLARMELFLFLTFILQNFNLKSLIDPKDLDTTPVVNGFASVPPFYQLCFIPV

[6] = target: T5, Sentrin-specific protease 8; experiment: inhibition of human SENP8 cleavage activity – biochemical, luminescence, SAR follow-up (AID 504501); assay type: functional
Caspase-3 [7] = target: T2, Caspase-3; experiment: SAR Analysis of small molecule inhibitors of Sentrin-specific proteases (SENPs) using a Caspase-3 Selectivity assay. [Related pubchem assays (depositor defined):AID2540, AID2599, AID434973, AID489001]; assay type: functional
[8] = target: T4, Sentrin-specific protease 6; experiment: SAR Analysis of small molecule inhibitors of Sentrin-specific protease 6 (SENP6) using a Luminescent assay. [Related pubchem assays (depositor defined):AID2582, AID2599]; assay type: functional
[9] = target: T3, Sentrin-specific protease 7; experiment: inhibition of human SENP7 cleavage activity – biochemical, luminescence, SAR follow-up (AID 504497); assay type: functional
Cytochrome P450 2D6 = Cytochrome P450 2D6 (Homo sapiens, UniProt P10635);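 note: CYP2D6 member of a cytochrome P450 panel assay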
Cytochrome P450 2D6, sequence (P10635 whole entry): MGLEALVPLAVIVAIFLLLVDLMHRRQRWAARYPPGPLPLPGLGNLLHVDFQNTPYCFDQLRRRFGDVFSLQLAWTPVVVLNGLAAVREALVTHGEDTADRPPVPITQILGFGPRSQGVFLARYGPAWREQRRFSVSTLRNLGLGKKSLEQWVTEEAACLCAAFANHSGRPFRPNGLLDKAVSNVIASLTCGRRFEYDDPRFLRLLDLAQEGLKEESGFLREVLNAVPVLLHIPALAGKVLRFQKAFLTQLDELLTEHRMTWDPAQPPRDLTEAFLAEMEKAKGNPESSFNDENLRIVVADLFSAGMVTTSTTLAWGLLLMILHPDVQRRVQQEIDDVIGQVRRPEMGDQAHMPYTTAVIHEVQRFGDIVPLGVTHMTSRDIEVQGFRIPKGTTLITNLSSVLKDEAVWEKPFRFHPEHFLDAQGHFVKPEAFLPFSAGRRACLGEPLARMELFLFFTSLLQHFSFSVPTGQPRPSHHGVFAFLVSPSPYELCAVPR

Cytochrome P450 2C9 = Cytochrome P450 2C9 (Homo sapiens, UniProt P11712)
Cytochrome P450 2C9, sequence (P11712 whole entry): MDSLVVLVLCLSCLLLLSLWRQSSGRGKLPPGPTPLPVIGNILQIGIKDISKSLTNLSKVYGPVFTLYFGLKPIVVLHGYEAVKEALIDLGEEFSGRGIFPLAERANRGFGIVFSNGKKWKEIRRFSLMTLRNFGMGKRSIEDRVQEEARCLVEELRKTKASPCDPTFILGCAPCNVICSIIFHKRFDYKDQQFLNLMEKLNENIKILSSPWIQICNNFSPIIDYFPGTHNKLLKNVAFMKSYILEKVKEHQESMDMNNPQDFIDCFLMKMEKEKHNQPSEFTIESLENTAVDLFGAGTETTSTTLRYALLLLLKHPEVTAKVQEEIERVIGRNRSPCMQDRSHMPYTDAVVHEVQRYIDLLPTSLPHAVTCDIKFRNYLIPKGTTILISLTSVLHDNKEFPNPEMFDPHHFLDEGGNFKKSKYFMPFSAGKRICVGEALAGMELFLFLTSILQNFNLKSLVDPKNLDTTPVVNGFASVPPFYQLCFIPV

[10] = target: T6, Endoribonuclease toxin MazF (Escherichia coli K-12, UniProt P0AE70); experiment: activation of MazEF endoribonuclease cleavage – biochemical, fluorescence, single-stranded RNA substrate, uHTS hits, dose response (AID 588481); assay type: functional
T6 sequence (P0AE70 whole entry): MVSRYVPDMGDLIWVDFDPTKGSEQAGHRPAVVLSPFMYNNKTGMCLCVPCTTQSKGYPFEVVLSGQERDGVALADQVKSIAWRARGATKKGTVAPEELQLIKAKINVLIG

[11] = target: T6, Endoribonuclease toxin MazF; experiment: substrate-only fluorescence increase artefacts – biochemical, single-stranded RNase substrate, counter-screen for MazEF activator project, dose response (AID 588502); assay type: functional
[12] = target: T7, Mannose-6-phosphate isomerase (Homo sapiens, UniProt P34949); experiment: MPI enzyme activity inhibition – biochemical, fluorescence intensity, coupled assay, primary screen (AID 1209)
T7 sequence (P34949 whole entry): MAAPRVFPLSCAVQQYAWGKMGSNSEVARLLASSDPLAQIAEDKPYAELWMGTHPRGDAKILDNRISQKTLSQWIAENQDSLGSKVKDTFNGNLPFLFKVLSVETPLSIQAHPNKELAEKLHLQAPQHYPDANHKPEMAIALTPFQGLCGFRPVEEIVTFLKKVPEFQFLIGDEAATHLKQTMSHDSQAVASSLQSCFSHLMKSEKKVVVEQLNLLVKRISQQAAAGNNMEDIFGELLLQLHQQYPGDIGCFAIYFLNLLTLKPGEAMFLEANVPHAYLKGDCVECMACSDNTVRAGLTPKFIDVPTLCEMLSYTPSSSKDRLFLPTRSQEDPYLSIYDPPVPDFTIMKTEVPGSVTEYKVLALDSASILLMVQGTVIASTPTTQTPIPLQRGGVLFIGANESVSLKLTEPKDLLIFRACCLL

[13] = target: T8, Apoptotic protease-activating factor 1 (Homo sapiens, UniProt O14727); assay type: functional
T8 sequence (O14727 whole entry): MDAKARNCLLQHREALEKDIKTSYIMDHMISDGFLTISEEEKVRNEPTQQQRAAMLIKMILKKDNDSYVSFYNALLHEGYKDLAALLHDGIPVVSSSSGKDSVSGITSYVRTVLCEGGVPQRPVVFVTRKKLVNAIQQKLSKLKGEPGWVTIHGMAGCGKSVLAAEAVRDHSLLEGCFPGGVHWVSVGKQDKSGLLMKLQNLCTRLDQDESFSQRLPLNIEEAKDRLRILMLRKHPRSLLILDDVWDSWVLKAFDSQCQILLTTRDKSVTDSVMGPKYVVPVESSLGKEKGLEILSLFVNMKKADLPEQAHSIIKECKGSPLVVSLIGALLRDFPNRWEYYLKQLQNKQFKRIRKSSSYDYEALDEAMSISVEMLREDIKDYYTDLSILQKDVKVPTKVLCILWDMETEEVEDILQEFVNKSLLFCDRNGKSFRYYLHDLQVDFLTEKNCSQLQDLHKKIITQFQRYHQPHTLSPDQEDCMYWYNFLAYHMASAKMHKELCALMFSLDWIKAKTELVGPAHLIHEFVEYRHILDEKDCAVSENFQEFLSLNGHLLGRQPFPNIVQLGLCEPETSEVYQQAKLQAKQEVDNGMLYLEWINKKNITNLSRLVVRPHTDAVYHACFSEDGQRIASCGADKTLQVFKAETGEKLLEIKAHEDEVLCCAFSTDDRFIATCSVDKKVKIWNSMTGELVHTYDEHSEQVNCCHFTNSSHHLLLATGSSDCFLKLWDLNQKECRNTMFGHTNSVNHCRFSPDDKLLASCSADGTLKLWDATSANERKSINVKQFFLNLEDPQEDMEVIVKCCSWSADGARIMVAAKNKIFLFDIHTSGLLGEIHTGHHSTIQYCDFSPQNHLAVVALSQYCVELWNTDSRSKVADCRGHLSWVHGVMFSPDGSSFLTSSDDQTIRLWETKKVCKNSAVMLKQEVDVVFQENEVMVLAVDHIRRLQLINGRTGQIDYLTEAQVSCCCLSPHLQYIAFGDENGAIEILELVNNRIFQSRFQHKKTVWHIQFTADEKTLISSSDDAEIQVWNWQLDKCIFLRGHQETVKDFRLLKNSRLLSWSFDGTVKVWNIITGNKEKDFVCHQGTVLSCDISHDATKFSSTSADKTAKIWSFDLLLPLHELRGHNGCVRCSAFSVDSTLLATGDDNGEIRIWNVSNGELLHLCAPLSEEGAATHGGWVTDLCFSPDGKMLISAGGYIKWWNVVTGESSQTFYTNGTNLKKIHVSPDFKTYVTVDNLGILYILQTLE

N#Cc1ccc(-c2ccco2)nc1SCC(=O)c1ccc(Cl)cc1
IC50 (CHO): 16.7 µM (inactive)
IC50 (Beta Lactamase): 10.1 µM (inactive)
IC50 (Protein Tat): > 100 µM (active)
CC50 [1]: > 40 µM (active)

Cc1ccc(/C=C/c2nnc(-c3cccs3)o2)cc1
IC50 (Caspase-3 [2]): > 100 µM (inactive)
IC50 [3]: > 100 µM (inactive)
IC50 [4]: > 100 µM (inactive)
IC50 [5]: 24.3 µM (active)
AC50 (Cytochrome P450 2C19): 25.1 µM (inconclusive)
IC50 [6]: 2.1 µM (active)
IC50 (Caspase-3 [7]): 2 µM (active)
IC50 [8]: 2 µM (active)
IC50 [9]: 1.7 µM (active)
AC50 (Cytochrome P450 2D6): 25.1 µM (inconclusive)
AC50 (Cytochrome P450 2C9): 10 µM (inconclusive)

CCCn1c(-c2cccs2)nc2c1c(=O)[nH]c(=O)n2Cc1ccccc1
EC50 [10]: > 99 µM (inactive)
EC50 [11]: > 99 µM (inactive)

O=C(N/N=C/c1ccc(-c2ccccc2[N+](=O)[O-])o1)c1cccnc1
IC50 [12]: > 50 µM (not active)
IC50 [13]: 39.2 µM (active)

— ChEMBL document CHEMBL1201862, “PubChem BioAssay data set” (2004)
